Results: patent publication US20240027453A1, “METHOD FOR DETECTION AND QUANTITATIVE MONITORING OF INFECTIONS WITH HERPESVIRUSES” (The Trustees of Princeton University, priority 2020, published 2024)
Like-named read-outs stand apart in the source and are kept apart here.

System: HCMV
Format: cell-based
Summary of the method: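 MRC5 human fibroblasts treated with compound or DMSO/PBS 12 h before infection with HSV-1 17+ or HCMV AD169 at MOI 3, drug re-added every 24 h. Viral proteins quantified by targeted PRM LC-MS/MS of tryptic peptides, summed 3-4 transitions, normalized to host loading-control peptides and scaled to each peptide's average across runs.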

Which results are given for `Nc1ccn(C[C@@H](CO)OCP(=O)(O)O)c(=O)n1` [CDV, cidofovir]?
HCMV late gene expression: reduction; HCMV protein levels across all temporal classes of gene expression (1 μM): substantial decreases; impact on HCMV IE genes compared to other gene classes (1 μM): relatively less impacted; decrease of HCMV protein UL54 (1 μM, across all time points): less than 20%; decrease in HCMV protein levels compared to PBS control (1 μM, by 72 HPI, in more than 85% of the proteins monitored): at least 35%; decrease in abundance of HCMV IE protein UL122 (1 μM, by 120 HPI): ~70%; DBP (P17147) protein, numerical value of heatmap FIG. 6C (DE, timepoint 24): 0.04283; HELI (P16736) protein, numerical value of heatmap FIG. 6C (DE, timepoint 24): 0.1024; NEC2 (P16791) protein, numerical value of heatmap FIG. 6C (DE, timepoint 24): 0.0159; RIR1 (P16782) protein, numerical value of heatmap FIG. 6C (DE, timepoint 24): 0.04961; UL26 (P16762) protein, numerical value of heatmap FIG. 6C (DE, timepoint 24): 0.04954; UL32 (P08318) protein, numerical value of heatmap FIG. 6C (DE, timepoint 24): 0.01616; UL34 (P16812) protein, numerical value of heatmap FIG. 6C (DE, timepoint 24): 0.05376; UL38 (P16779) protein, numerical value of heatmap FIG. 6C (DE, timepoint 24): 0.5007; UL44 (P16790) protein, numerical value of heatmap FIG. 6C (DE, timepoint 24): 0.0325; UL54 (P08546) protein, numerical value of heatmap FIG. 6C (DE, timepoint 24): 0.2154; UL71 (P16823) protein, numerical value of heatmap FIG. 6C (DE, timepoint 24): 0.2978; UL78 (P16751) protein, numerical value of heatmap FIG. 6C (DE, timepoint 24): 0.1834; UL84 (P16727) protein, numerical value of heatmap FIG. 6C (DE, timepoint 24): 0.0827; UL96 (P16787) protein, numerical value of heatmap FIG. 6C (DE, timepoint 24): 0.339; UL97 (P16788) protein, numerical value of heatmap FIG. 6C (DE, timepoint 24): 0.1685; UL98 (P16789) protein, numerical value of heatmap FIG. 6C (DE, timepoint 24): 0.1785; UL102 (P16827) protein, numerical value of heatmap FIG. 6C (DE, timepoint 24): 0.2917; UL112/UL113 (P17151) protein, numerical value of heatmap FIG. 6C (DE, timepoint 24): 0.3345; UL114 (P16769) protein, numerical value of heatmap FIG. 6C (DE, timepoint 24): 0.3025; UL119/UL118 (P16739) protein, numerical value of heatmap FIG. 6C (DE, timepoint 24): 0.07541; UL128 (P16837) protein, numerical value of heatmap FIG. 6C (DE, timepoint 24): 0.1472; US8 (P09730) protein, numerical value of heatmap FIG. 6C (DE, timepoint 24): 0.3317; US9 (P09729) protein, numerical value of heatmap FIG. 6C (DE, timepoint 24): 0.2308; US12 (P09721) protein, numerical value of heatmap FIG. 6C (DE, timepoint 24): 0.6397; US13 (P09720) protein, numerical value of heatmap FIG. 6C (DE, timepoint 24): 0.2174; US14 (P09719) protein, numerical value of heatmap FIG. 6C (DE, timepoint 24): 0.1903; US18 (P69334) protein, numerical value of heatmap FIG. 6C (DE, timepoint 24): 0.3161; US22 (P09722) protein, numerical value of heatmap FIG. 6C (DE, timepoint 24): 0.1701; US23 (P09701) protein, numerical value of heatmap FIG. 6C (DE, timepoint 24): 0.3435; US24 (P09700) protein, numerical value of heatmap FIG. 6C (DE, timepoint 24): 0.2973; gB (P06473) protein, numerical value of heatmap FIG. 6C (DE, timepoint 24): 0.05133; sp|P09710|IR01_HCMVA (P09710) protein, numerical value of heatmap FIG. 6C (DE, timepoint 24): 0.1514; DBP (P17147) protein, numerical value of heatmap FIG. 6C (DE, timepoint 48): 0.2386; HELI (P16736) protein, numerical value of heatmap FIG. 6C (DE, timepoint 48): 0.4106; NEC2 (P16791) protein, numerical value of heatmap FIG. 6C (DE, timepoint 48): 0.08567; RIR1 (P16782) protein, numerical value of heatmap FIG. 6C (DE, timepoint 48): 0.1065; TRM1 (P16724) protein, numerical value of heatmap FIG. 6C (DE, timepoint 48): 0.1188; UL4 (P17146) protein, numerical value of heatmap FIG. 6C (DE, timepoint 48): 0.07447; UL26 (P16762) protein, numerical value of heatmap FIG. 6C (DE, timepoint 48): 0.1073; UL32 (P08318) protein, numerical value of heatmap FIG. 6C (DE, timepoint 48): 0.03113; UL34 (P16812) protein, numerical value of heatmap FIG. 6C (DE, timepoint 48): 0.1018; UL38 (P16779) protein, numerical value of heatmap FIG. 6C (DE, timepoint 48): 0.7494; UL44 (P16790) protein, numerical value of heatmap FIG. 6C (DE, timepoint 48): 0.09556; UL48 (P16785) protein, numerical value of heatmap FIG. 6C (DE, timepoint 48): 0.04333; UL54 (P08546) protein, numerical value of heatmap FIG. 6C (DE, timepoint 48): 0.6243; UL71 (P16823) protein, numerical value of heatmap FIG. 6C (DE, timepoint 48): 0.3899; UL78 (P16751) protein, numerical value of heatmap FIG. 6C (DE, timepoint 48): 0.6533; UL84 (P16727) protein, numerical value of heatmap FIG. 6C (DE, timepoint 48): 0.1297; UL95 (P16801) protein, numerical value of heatmap FIG. 6C (DE, timepoint 48): 0.1215; UL96 (P16787) protein, numerical value of heatmap FIG. 6C (DE, timepoint 48): 0.3595; UL97 (P16788) protein, numerical value of heatmap FIG. 6C (DE, timepoint 48): 0.2502; UL98 (P16789) protein, numerical value of heatmap FIG. 6C (DE, timepoint 48): 0.3561; UL102 (P16827) protein, numerical value of heatmap FIG. 6C (DE, timepoint 48): 0.7853; UL104 (P16735) protein, numerical value of heatmap FIG. 6C (DE, timepoint 48): 0.06237; UL112/UL113 (P17151) protein, numerical value of heatmap FIG. 6C (DE, timepoint 48): 0.5163; UL114 (P16769) protein, numerical value of heatmap FIG. 6C (DE, timepoint 48): 0.6429; UL119/UL118 (P16739) protein, numerical value of heatmap FIG. 6C (DE, timepoint 48): 0.3879; UL128 (P16837) protein, numerical value of heatmap FIG. 6C (DE, timepoint 48): 0.163; US8 (P09730) protein, numerical value of heatmap FIG. 6C (DE, timepoint 48): 0.9091; US9 (P09729) protein, numerical value of heatmap FIG. 6C (DE, timepoint 48): 0.6112; US12 (P09721) protein, numerical value of heatmap FIG. 6C (DE, timepoint 48): 0.7192; US13 (P09720) protein, numerical value of heatmap FIG. 6C (DE, timepoint 48): 0.7254; US14 (P09719) protein, numerical value of heatmap FIG. 6C (DE, timepoint 48): 0.2849; US18 (P69334) protein, numerical value of heatmap FIG. 6C (DE, timepoint 48): 0.7625; US22 (P09722) protein, numerical value of heatmap FIG. 6C (DE, timepoint 48): 0.4007; US23 (P09701) protein, numerical value of heatmap FIG. 6C (DE, timepoint 48): 0.4974; US24 (P09700) protein, numerical value of heatmap FIG. 6C (DE, timepoint 48): 0.4753; gB (P06473) protein, numerical value of heatmap FIG. 6C (DE, timepoint 48): 0.1893; sp|P09710|IR01_HCMVA (P09710) protein, numerical value of heatmap FIG. 6C (DE, timepoint 48): 0.2164; CVC2 (P16726) protein, numerical value of heatmap FIG. 6C (DE, timepoint 72): 0.2298; DBP (P17147) protein, numerical value of heatmap FIG. 6C (DE, timepoint 72): 0.7802; HELI (P16736) protein, numerical value of heatmap FIG. 6C (DE, timepoint 72): 0.7131; NEC1 (P16794) protein, numerical value of heatmap FIG. 6C (DE, timepoint 72): 0.2456; NEC2 (P16791) protein, numerical value of heatmap FIG. 6C (DE, timepoint 72): 0.6919; RIR1 (P16782) protein, numerical value of heatmap FIG. 6C (DE, timepoint 72): 0.443; TRM1 (P16724) protein, numerical value of heatmap FIG. 6C (DE, timepoint 72): 0.5444; UL4 (P17146) protein, numerical value of heatmap FIG. 6C (DE, timepoint 72): 0.08145; UL26 (P16762) protein, numerical value of heatmap FIG. 6C (DE, timepoint 72): 0.4973; UL32 (P08318) protein, numerical value of heatmap FIG. 6C (DE, timepoint 72): 0.2303; UL34 (P16812) protein, numerical value of heatmap FIG. 6C (DE, timepoint 72): 0.5754; UL35 (P16766) protein, numerical value of heatmap FIG. 6C (DE, timepoint 72): 0.3346; UL38 (P16779) protein, numerical value of heatmap FIG. 6C (DE, timepoint 72): 0.9343; UL44 (P16790) protein, numerical value of heatmap FIG. 6C (DE, timepoint 72): 0.5197; UL48 (P16785) protein, numerical value of heatmap FIG. 6C (DE, timepoint 72): 0.4665; UL54 (P08546) protein, numerical value of heatmap FIG. 6C (DE, timepoint 72): 1.149; UL71 (P16823) protein, numerical value of heatmap FIG. 6C (DE, timepoint 72): 0.768; UL78 (P16751) protein, numerical value of heatmap FIG. 6C (DE, timepoint 72): 1.048; UL84 (P16727) protein, numerical value of heatmap FIG. 6C (DE, timepoint 72): 0.3948; UL95 (P16801) protein, numerical value of heatmap FIG. 6C (DE, timepoint 72): 0.3335; UL96 (P16787) protein, numerical value of heatmap FIG. 6C (DE, timepoint 72): 0.5111; UL97 (P16788) protein, numerical value of heatmap FIG. 6C (DE, timepoint 72): 0.5258; UL98 (P16789) protein, numerical value of heatmap FIG. 6C (DE, timepoint 72): 0.6741; UL102 (P16827) protein, numerical value of heatmap FIG. 6C (DE, timepoint 72): 1.111; UL104 (P16735) protein, numerical value of heatmap FIG. 6C (DE, timepoint 72): 0.4852; UL112/UL113 (P17151) protein, numerical value of heatmap FIG. 6C (DE, timepoint 72): 0.7131; UL114 (P16769) protein, numerical value of heatmap FIG. 6C (DE, timepoint 72): 1.008
